Here are results for 1 compound from publication PMC3130785, “Small Compound 6-O-Angeloylplenolin Induces Mitotic Arrest and Exhibits Therapeutic Potentials in Multiple Myeloma” (PLoS ONE, 2011).

The subject of data set [1] is U266, RPMI 8226, MM.1S, and MM.1R cells. Briefly: Trypan blue exclusion assay. Format: cell-based, human. As to conditions: 6-OAP 5 to 7.5 µM. How it is done: (§1) U266, RPMI 8226 cells (1×10^4), primary CD138+ cells, PBMCs (5×10^4), and BMSCs (1×10^4) were cultured in 96-well dishes and incubated without or with 6-OAP at indicated concentration for 48 h. MM.1S and MM.1R cells (2×10^4) were seeded into 96-well dishes and pre-cultured for 24 h, then treated with 6-OAP for 48 h. Cell proliferation was determined by MTT assay. Cell viability was estimated by trypan blue dye exclusion.

The subject of data set [2] is MM.1S cells. In words: MTT assay, 6-OAP combined with Dox, Dex or BOR. Format: cell-based, human. As to conditions: 48 h, 6-OAP 5 µM, in particular Dox and BOR. How it is done: as §1
Figure 4 6-OAP enhances cytotoxicity of Dox, Dex and BOR to MM cells. (A through C) MM.1S cells were treated for 48 h with Dox (A), Dex (B) or BOR (C) in the presence or absence of 6-OAP at 5 µM. MTT assay was used to test the proliferation of MM.1S cells. (D) MM.1R cells were treated for 48 h with Dex in the presence or absence of 6-OAP at 7.5 µM. MTT assay was used to test the proliferation of MM.1R cells. *p<.001,** p<.05. (E) MM.1S cells were cultured with control media (con), 6-OAP (O, 5 µM), BOR (B, 3 nM), or 6-OAP (5 µM) plus BOR (3 nM) (OB) for indicated time points. Cells were then lysed and subjected to Western blotting using indicated antibodies. CF, cleavage fragment.

Data set [3] in a line: Pharmacokinetic study (LC-MS/MS plasma concentration). Format: in vivo, Sprague-Dawley rats. The note with it: rat; for MRT last: read-out: MRT0-t. How it is done: Eight Sprague–Dawley rats (220–250 g, female) were bought from the Laboratory Animal Center of Nanfang Medical University (Guangzhou, China), and maintained and monitored in a specific pathogen-free environment. They were fasted overnight before the experiments. All rat studies were conducted according to protocols approved by the Animal Ethics Committee of our institute. Four rats were administered with 6-OAP (30 mg/kg) by intravenous injection, and the other four rats were inoculated with 6-OAP (40 mg/kg) by intraperitoneal injection. Blood samples of 100–200 µL were collected from the orbit at the time points indicated. The plasma concentrations of 6-OAP were determined by LC-MS/MS. The pharmacokinetic parameters were obtained from the pharmacokinetic software DAS 2.0 (Drug and Statistics Version 2.0).

The subject of data set [4] is human HL-60 leukemia cells. On the set-up: method as in PMID 18077129. The note with it: mitochondrial/caspase and NF-κB pathway; cited from earlier work.
Data set [5] concerns Staphylococcus aureus. On the set-up: method as in PMID 9461679, PMID 8657743, PMID 12521264. The note with it: cited from earlier work.
For data set [6], the system named is U266, RPMI 8226, MM.1S, and MM.1R cells. Briefly: MTT assay, MM cell lines together. In kind it is cell-based. As to conditions: Homo sapiens, range over the four MM cell lines. As to the method:
as §1

[7] abbreviates: female, Sprague-Dawley, in vivo, ip (40 mg/kg).
[8] abbreviates: female, Sprague-Dawley, in vivo, iv (30 mg/kg).

The structures appear in SMILES notation. Where two headings read alike, the source gives them in different places.

Consider `CC=C(C)C(=O)OC1C2C(CC(C)C3C=CC(=O)C31C)OC(=O)C2C` (stereo not shown) [6-OAP, 6-O-angeloylplenolin], for which the “cell growth (trypan blue exclusion)” value in data set [1] is listed as “markedly inhibited cell growth”. Besides, the “effect on cytotoxicity of Dox, Dex, BOR” value in data set [2] is given as “significantly enhanced cytotoxicity”. The AUC(0-t) in data set [3] (setting [7]) is 18000 ± 2700 ng·h/mL; in data set [3] (setting [8]), 14700 ± 1020 ng·h/mL. In addition, the Cmax in data set [3] (setting [7]) worked out at 3870 ± 1120 ng/mL; in data set [3] (setting [8]) it was 16400 ± 1940 ng/mL. Moreover, the half-life in data set [3] (setting [7]) was 4.68 ± 0.463 h; in data set [3] (setting [8]), 1.76 ± 0.453 h. Besides, the bioavailability in data set [3] (female, Sprague-Dawley, in vivo, ip (40 mg/kg), read-out: BA (bioavailability)) is 92.5%. The values for the MRT last in data set [3] (setting [7]) and in data set [3] (setting [8]) were 5.75 ± 1.03 h and 1.44 ± 0.448 h, respectively. For the same compound, in data set [3] (female, Sprague-Dawley, in vivo, iv (30 mg/kg), read-out: CLz (converted)), the clearance was 34.1 mL/min/kg. Further, the Tmax in data set [3] (female, Sprague-Dawley, in vivo, ip, 40 mg/kg, ip 40 mg/kg, read-out: time of peak concentration (converted)) is 0.813 h; in data set [3] (female, Sprague-Dawley, in vivo, ip, 40 mg/kg, ip (40 mg/kg), read-out: Tmax), 0.813 ± 0.08 h; in data set [3] (female, Sprague-Dawley, in vivo, iv, 30 mg/kg, iv 30 mg/kg, read-out: time of peak concentration (converted)), 0.033 h; in data set [3] (female, Sprague-Dawley, in vivo, iv, 30 mg/kg, iv (30 mg/kg), read-out: Tmax) it was 0.033 h. This compound also gave a CLz in data set [3] (ip 40 mg/kg) of 37.33 ± 5.58 mL/min/kg. The peak plasma concentration in data set [3] (ip 40 mg/kg) was 11.191 ± 3.225 µM; in data set [3] (iv 30 mg/kg), 47.506 ± 5.595 µM. For the same compound, in data set [4], the apoptosis entry is reported as “induce apoptosis”. In addition, in data set [5], the antibacterial activity entry was “exhibit antibacterial activity”. The IC50 in data set [6] is 3.5 to 9.2 µM.
